target: PIK3CD (Human) (UniProt O00329); test: Assessment of PIK3CD Kinase Activity
Sequence (O00329 whole entry, looked up): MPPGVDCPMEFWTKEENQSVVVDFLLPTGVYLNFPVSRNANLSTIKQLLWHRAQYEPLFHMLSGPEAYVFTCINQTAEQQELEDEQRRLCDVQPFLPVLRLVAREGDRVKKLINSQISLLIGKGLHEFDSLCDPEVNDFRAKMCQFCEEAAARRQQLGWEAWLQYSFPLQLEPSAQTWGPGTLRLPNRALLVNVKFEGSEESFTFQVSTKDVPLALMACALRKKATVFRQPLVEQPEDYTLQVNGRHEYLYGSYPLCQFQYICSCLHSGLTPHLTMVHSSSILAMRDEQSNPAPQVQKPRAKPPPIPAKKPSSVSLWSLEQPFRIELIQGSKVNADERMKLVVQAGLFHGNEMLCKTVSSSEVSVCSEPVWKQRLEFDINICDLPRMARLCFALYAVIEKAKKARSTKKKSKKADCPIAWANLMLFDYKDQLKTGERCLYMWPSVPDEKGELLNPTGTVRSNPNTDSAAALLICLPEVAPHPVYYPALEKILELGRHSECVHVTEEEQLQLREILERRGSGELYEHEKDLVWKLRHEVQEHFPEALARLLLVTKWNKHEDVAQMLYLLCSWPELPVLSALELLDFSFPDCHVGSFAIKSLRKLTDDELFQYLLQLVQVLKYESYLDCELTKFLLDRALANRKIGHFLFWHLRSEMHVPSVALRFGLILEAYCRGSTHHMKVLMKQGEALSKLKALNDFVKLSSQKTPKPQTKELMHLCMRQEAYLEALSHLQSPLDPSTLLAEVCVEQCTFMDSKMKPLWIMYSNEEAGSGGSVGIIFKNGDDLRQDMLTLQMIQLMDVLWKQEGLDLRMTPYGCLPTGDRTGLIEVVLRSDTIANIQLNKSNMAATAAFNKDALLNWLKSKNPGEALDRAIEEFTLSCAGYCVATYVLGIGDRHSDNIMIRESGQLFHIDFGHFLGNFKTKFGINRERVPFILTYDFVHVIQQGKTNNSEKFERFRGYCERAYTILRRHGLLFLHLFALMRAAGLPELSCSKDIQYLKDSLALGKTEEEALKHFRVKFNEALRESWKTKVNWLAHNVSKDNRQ

| SMILES | IC50 [nM] |
| --- | --- |
| CN1CCC(N(C)Cc2ccc3nc(-c4cc(F)cc5[nH]ccc45)nc(N4CCOCC4)c3c2)CC1 | < 500 |
| CN1CCC(N(C)Cc2ccc3nc(-c4cccc5[nH]ccc45)nc(N4CCOCC4)c3c2)CC1 | < 500 |
| OCCN1CCN(Cc2ccc3nc(-c4cccc5[nH]ccc45)nc(N4CCOCC4)c3c2)CC1 | < 500 |
| c1cc(-c2nc(N3CCOCC3)c3cc(CN4CC5CNCC5C4)ccc3n2)c2cc[nH]c2c1 (configuration not stated) | < 500 |
| Fc1ccc2[nH]ccc2c1-c1nc(N2CCOCC2)c2cc(CN3C[C@@H]4C[C@H]3CN4)ccc2n1 | < 500 |
| c1cc(-c2nc(N3CCOCC3)c3cc(CN4CC5(CCNCC5)C4)ccc3n2)c2cc[nH]c2c1 | < 500 |
| C[C@@H]1CN(Cc2ccc3nc(-c4cccc5[nH]ccc45)nc(N4CCOCC4)c3c2)C[C@H](C)N1 | < 500 |
| Fc1cc(-c2nc(N3CCOCC3)c3cc(CN4CCC(N5CCOCC5)CC4)ccc3n2)c2cc[nH]c2c1 | < 500 |
| c1cc(-c2nc(N3CCOCC3)c3cc(CN4CCC(N5CCOCC5)CC4)ccc3n2)c2cc[nH]c2c1 | < 500 |
| c1cc(-c2nc(N3CCOCC3)c3cc(CN4CCN5CCC[C@H]5C4)ccc3n2)c2cc[nH]c2c1 | < 500 |
| c1cc(-c2nc(N3CCOCC3)c3cc(CN4CC5CCC(C4)N5)ccc3n2)c2cc[nH]c2c1 | < 500 |
| CN1CCN(Cc2ccc3nc(-c4cccc5[nH]ccc45)nc(N4CCOCC4)c3c2)CC1 | < 500 |

— the Kinase Knowledgebase extract (Sharma et al. 2016)
